Experimental data from patent US20260021167A1, “COMPOSITIONS AND METHODS FOR TREATING OR PREVENTING NEURODEGENERATIVE DISEASES” (Delaware State University, priority 2022, published 2026).

Columns and labels:
N27 cells = assay: Cell viability (MTT) assay after PFF exposure; format: cell-based, rat; details: N27 cells after PFF (1 μg/ml) exposure for 24 h; compared to PFF only control
Excerpt: Cell Viability Assay. The MTT assay is a colorimetric assay that is based on the conversion of water-soluble MTT (3-(4,5-dimethylthiazol-2-yl)-2,5-diphenyltetrazolium bromide) into formazan crystal by mitochondrial dehydrogenase enzymes, soluble in 100% DMSO. The resulting solution is purple in color, and the color intensity is proportional to the viable cells for each well in a 96-well plate. A variety of SENP-1 inhibitors, such as SUMO-2 aldehyde, Momordin lc, streptonigrin, hinokiflavone, oleanolic acid and siRNA of SENP-1, were treated in N27 cells after PFF (1 μg/ml) exposure for 24 h. After adding 5 mM MTT dye to cells, the color intensity in MTT assays was measured using a spectrophotometer (SpectraMax M5e, Molecular devices, Dover, USA), at 570 nm with a reference wavelength of 630 nm. The cells were incubated with the MTT reagent (ab211091, Abcam) at 37° C. for 3 h, followed by solubilizing the formazan crystals in solution.
In this study, numerous commercially available SENP-1 inhibitors were tested for the recovery effects from preformed fibrils of alpha-synuclein (PFF)-induced PD models in vitro. […]

TH+ dopaminergic neurons = assay: Immunohistochemistry of TH staining in striatum and SNc of PFF-injected mice; format: in vivo, mouse
Method: A mouse model of Parkinson's disease is C57BL/6 male or female mice (50% each) injected with 5 μg of mouse PFF at 12 months old, followed by a treatment below for 6-7 weeks: • 1) without PFF injection, followed by vehicle (control, n=7); • 2) PFF injection, followed by vehicle (PFF only: control, n=8); • 3) PFF injection, followed by daily 10 mg/kg Momordin gavage (n=7-8); • 4) PFF injection, followed by daily 50 mg/kg Momordin gavage (n=7-8).
Immunohistochemistry. The serial coronal sections of the right hemisphere were collected throughout the striatum and substantia nigra. Each section with a thickness of 14 μm was mounted as a set of 5 onto positively charged slides (Midwest Sci, Valley Park, MO). The slides were kept at −80° C. until immunohistochemistry was performed. The sections were thawed at room temperature for 30 min, followed by a rehydration step in 0.1M PB for 10 min. The permeabilization step was performed using pre-chilled 100% acetone for 10 min. The excess acetone was dried, and permeabilization solution (40 µL Triton-X in 2% BSA) was added to the slides and kept aside for an additional 10 min. A blocking reagent containing 5% BSA in PB-T was given in the blocking step after drying the slides of excess permeabilization solution. The primary antibody was exposed under the coverslips to prevent the dehydration of the primary antibody. After the primary antibody (EMD Millipore-AB152) treatment at 4° C. overnight, the tissues were washed in PBS-T for 5 min three times. Then, slides were treated with a secondary antibody of Alexa-647-conjugated goat anti-rabbit (1:1000; Molecular Probes, Thermo Fisher Scientific) and incubated at room temperature for 2 h. The secondary antibody was washed in PBS-T for 3×5 min. Coverslips were mounted on slides using ProLong Diamond antifade mounting medium (Thermofisher, MA, USA). All images were captured using EVOS FL Cell Imaging Systems (Invitrogen), and every fifth section was analyzed for measuring the intensity of TH staining in the striatum and counting TH+ neurons in the SNc in a blinded manner. The same procedure was used for assessing the levels of phosphorylated Ser-129-α-synuclein (1:500, Cell signaling, cat #23706S) and protein aggregation using thioflavin-T (20 μM, Acros). Pictures for specific regions such as the striatum and ventral midbrain (vMB) were taken using confocal microscopy and stitched together to obtain a single image for representation purposes. The intensities were measured using ImageJ by a blinded rater.
Immunohistochemistry. The serial coronal sections of the right hemisphere were collected throughout the striatum and substantia nigra. Each section with a thickness of 14 μm was mounted as a set of 5 onto positively charged slides (Midwest Sci, Valley Park, MO). […]

CC1(C)CC[C@]2(C(=O)O)CC[C@]3(C)C(=CC[C@@H]4[C@@]5(C)CC[C@H](O[C@@H]6O[C@H](C(=O)O)[C@@H](O)[C@H](O[C@@H]7OC[C@@H](O)[C@H](O)[C@H]7O)[C@H]6O)C(C)(C)[C@@H]5CC[C@]43C)[C@@H]2C1 [Momordin lc]
cell viability from PFF-mediated toxicity (MTT assay) (N27 cells): significantly enhanced the cell viability
recovery from damages in the striatum and Substantia Nigra compacta (SNc) (TH+ dopaminergic neurons; 50 mg/kg oral for 6-7 weeks, PFF-injected mice): effective
dopaminergic neuronal death / neuronal cell loss in mouse brains (TH+ dopaminergic neurons; PFF injection): reverse dopaminergic neuronal death
number of TH+ dopaminergic neurons in the SNc (TH+ dopaminergic neurons; both doses (10 and 50 mg/kg) oral for 6-7 weeks, PFF-injected mice, vs PFF only): significantly recovered
intensity of TH+ label in the striatum (TH+ dopaminergic neurons; oral treatment for 6-7 weeks, PFF-injected mice, vs PFF only): improves the intensity of TH+ label
